Test results: publication PMC4052943 (BioMed Research International, 2014)
Read-outs that look alike come from different tables or passages of the source.

What was measured:
[1] = system: BP-induced DNA adducts (rat liver microsomes, st-DNA); assay: Microsomal BP-DNA adducts, 32P-postlabeling; type: biochemical; details: for BP-induced DNA adducts: BP 1 μM, rat liver microsomes, st-DNA
Description: st-DNA (300 μg/mL) was preincubated with 50 mM Tris-HCl (pH 7.5), 1 mM MgCl2, 2.5 mM glucose-6-phosphate, 1 U/mL G6PDH, 0.5 mM NADP+, and α-naphthoflavone-induced rat liver microsomal proteins (1 mg/mL) in 1 mL for 10 min, in the presence of vehicle alone and PC and EA at 20 and 40 μM. […] The incubation was continued for another 30 min at 37°C and then reaction was terminated by the addition of EDTA and centrifugation (9,000 g; 10 min). DNA was isolated from the supernatant by removal of RNA and proteins by digestions with RNases A and T1 and proteinase K and a series of extractions with phenol, phenol: Sevag (chloroform : isoamyl alcohol, 24 : 1), and Sevag, followed by precipitation of the DNA with ethanol. The DNA concentration was estimated spectrophotometrically.
DNA adducts were analyzed by ^32P-postlabeling as described earlier. Briefly, 10 μg of DNA was digested with micrococcal nuclease and spleen phosphodiesterase (MN/SPD). Before further treatment with nuclease P1 to enrich DNA adducts, an aliquot was removed for evaluation of normal nucleotide levels. DNA adducts and normal nucleotides were labelled with [γ-^32P]ATP and T4 polynucleotide kinase. Labelled adducts were separated by multidirectional polyethyleneimine (PEI)-cellulose TLC using the following solvents: D1, 1.0 M sodium phosphate, pH 6.0; D3, 4 M lithium formate/7 M urea, pH 3.5; D4, 4 M ammonium hydroxide/isopropanol (1 : 0.9); and D5, 1.7 M sodium phosphate, pH 6.0. Normal nucleotides were resolved in 180 mM sodium phosphate, pH 6.0, by one-directional PEI-cellulose TLC. DNA adducts and normal nucleotides were detected and quantified by Packard InstantImager.

[2] = system: Salmonella typhimurium TA97a; details: TA 97a
Description: (§1) In the preincubation experiment, test compounds and mutagen, each having a volume of 0.1 mL of varying concentrations, were preincubated at 37°C for 30 min and then 0.1 mL of 1 × 10^7 CFU/mL density of the bacterial culture was added, followed by the addition of 2.5 mL of top agar at 45°C (containing 0.5% NaCl and 0.6% agar) supplemented with 0.5 mM histidine-biotin. […] The combined solutions were vortexed and poured onto minimal glucose plates (40% glucose solution and Vogel Bonner medium). The plates were incubated at 37°C for 48 h and the numbers of histidine-independent revertants colonies were scored.
(§2) Survival of the bacteria was routinely monitored for each experiment. Parallel controls were run with compounds alone at all concentrations to test the possible toxicity. The concentrations of the test samples for investigating the antimutagenicity were 50, 100, 200, and 500 μM. […] All the test samples and mutagens were dissolved in DMSO (final conc., 0.01%). […] Plates were set up in triplicate for each concentration and the entire experiment was repeated three times. Inhibition of mutagenicity was expressed as percentage decrease of reverse mutation and calculated as (1) Percent inhibition=[(a−b)/(a−c)]×100, where a = number of histidine revertants induced by mutagen, b = number of histidine revertants induced by mutagen in the presence of test compound, and c = number of revertants induced in negative control.

[3] = system: Salmonella typhimurium TA98
Description: as §1, §2

[4] = system: Salmonella typhimurium TA100
Description: as §1, §2

## O=C1O[C@H]2[C@@H]3OC(=O)c4cc(O)c(O)c(O)c4-c4c(O)c(O)c5oc(=O)c6c(c(O)c(O)c7oc(=O)c4c5c76)-c4c(cc(O)c(O)c4O)C(=O)OC[C@H]3OC(O)[C@@H]2OC(=O)c2cc(O)c(O)c(O)c2-c2c1cc(O)c(O)c2O (mixture of isomers) [Punicalagin]
[1]; 20 μM test compound
  BP-induced DNA adducts: 42.9 ± 16 DNA adducts/10^8 nucleotides
[1]; 40 μM test compound
  BP-induced DNA adducts: 7.2 ± 6.1 DNA adducts/10^8 nucleotides
[1]; 40 μM, BP with rat liver microsomes, cofactors, DNA
  inhibition of BP-induced DNA adducts: 97%
[2]; 50 μM alone (negative control), 2AF tables
  Number of His+ revertants colonies/plate: 132.3 ± 8.8 colonies/plate
[2]; 50 μM alone (negative control), BP tables
  Number of His+ revertants colonies/plate: 132.3 ± 8.8 colonies/plate
[2]; 50 μM alone (negative control), MMS tables
  Number of His+ revertants colonies/plate: 141.3 ± 5.2 colonies/plate
[2]; 50 μM alone (negative control), NaN3 tables
  Number of His+ revertants colonies/plate: 141.3 ± 5.2 colonies/plate
[2]; 100 μM alone (negative control), 2AF tables
  Number of His+ revertants colonies/plate: 158.0 ± 7.4 colonies/plate
[2]; 100 μM alone (negative control), BP tables
  Number of His+ revertants colonies/plate: 158.0 ± 7.4 colonies/plate
[2]; 100 μM alone (negative control), MMS tables
  Number of His+ revertants colonies/plate: 153.7 ± 9.2 colonies/plate
[2]; 100 μM alone (negative control), NaN3 tables
  Number of His+ revertants colonies/plate: 153.7 ± 9.2 colonies/plate
[2]; 250 μM alone (negative control), 2AF tables
  Number of His+ revertants colonies/plate: 165.7 ± 10.9 colonies/plate
[2]; 250 μM alone (negative control), BP tables
  Number of His+ revertants colonies/plate: 165.7 ± 10.9 colonies/plate
[2]; 250 μM alone (negative control), MMS tables
  Number of His+ revertants colonies/plate: 158.3 ± 7.1 colonies/plate
[2]; 250 μM alone (negative control), NaN3 tables
  Number of His+ revertants colonies/plate: 158.3 ± 7.1 colonies/plate
[2]; 500 μM alone (negative control), 2AF tables
  Number of His+ revertants colonies/plate: 188.0 ± 9.5 colonies/plate
[2]; 500 μM alone (negative control), BP tables
  Number of His+ revertants colonies/plate: 188.0 ± 9.5 colonies/plate
[2]; 500 μM alone (negative control), MMS tables
  Number of His+ revertants colonies/plate: 174.0 ± 6.4 colonies/plate
[2]; 500 μM alone (negative control), NaN3 tables
  Number of His+ revertants colonies/plate: 174.0 ± 6.4 colonies/plate
[3]; Salmonella typhimurium
  Number of His+ revertants colonies/plate: 31.0 ± 1.7 colonies/plate
[3]; TA 98, 50 μM alone (negative control), 2AF tables
  Number of His+ revertants colonies/plate: 40.7 ± 2.9 colonies/plate
[3]; TA 98, 50 μM alone (negative control), BP tables
  Number of His+ revertants colonies/plate: 40.7 ± 2.9 colonies/plate
[3]; TA 98, 50 μM alone (negative control), MMS tables
  Number of His+ revertants colonies/plate: 42.3 ± 1.8 colonies/plate
[3]; TA 98, 50 μM alone (negative control), NaN3 tables
  Number of His+ revertants colonies/plate: 42.3 ± 1.8 colonies/plate
[3]; TA 98, 100 μM alone (negative control), 2AF tables
  Number of His+ revertants colonies/plate: 36.3 ± 1.8 colonies/plate
[3]; TA 98, 100 μM alone (negative control), BP tables
  Number of His+ revertants colonies/plate: 36.3 ± 1.8 colonies/plate
[3]; TA 98, 100 μM alone (negative control), MMS tables
  Number of His+ revertants colonies/plate: 35.7 ± 1.8 colonies/plate
[3]; TA 98, 100 μM alone (negative control), NaN3 tables
  Number of His+ revertants colonies/plate: 35.7 ± 1.8 colonies/plate
[3]; TA 98, 250 μM alone (negative control), BP tables
  Number of His+ revertants colonies/plate: 31.0 ± 1.7 colonies/plate
[3]; TA 98, 250 μM alone (negative control), MMS tables
  Number of His+ revertants colonies/plate: 30.0 ± 1.2 colonies/plate
[3]; TA 98, 250 μM alone (negative control), NaN3 tables
  Number of His+ revertants colonies/plate: 30.0 ± 1.2 colonies/plate
[3]; TA 98, 500 μM alone (negative control), 2AF tables
  Number of His+ revertants colonies/plate: 22.3 ± 1.8 colonies/plate
[3]; TA 98, 500 μM alone (negative control), BP tables
  Number of His+ revertants colonies/plate: 22.3 ± 1.8 colonies/plate
[3]; TA 98, 500 μM alone (negative control), MMS tables
  Number of His+ revertants colonies/plate: 27.3 ± 2.0 colonies/plate
[3]; TA 98, 500 μM alone (negative control), NaN3 tables
  Number of His+ revertants colonies/plate: 27.3 ± 2.0 colonies/plate
[4]; Salmonella typhimurium
  Number of His+ revertants colonies/plate: 175.3 ± 14.3 colonies/plate
[4]; TA 100, 50 μM alone (negative control), 2AF tables
  Number of His+ revertants colonies/plate: 136.0 ± 11.7 colonies/plate
[4]; TA 100, 50 μM alone (negative control), BP tables
  Number of His+ revertants colonies/plate: 136.0 ± 11.7 colonies/plate
[4]; TA 100, 50 μM alone (negative control), MMS tables
  Number of His+ revertants colonies/plate: 189.7 ± 12.0 colonies/plate
[4]; TA 100, 50 μM alone (negative control), NaN3 tables
  Number of His+ revertants colonies/plate: 189.7 ± 12.0 colonies/plate
[4]; TA 100, 100 μM alone (negative control), 2AF tables
  Number of His+ revertants colonies/plate: 162.7 ± 15.0 colonies/plate
[4]; TA 100, 100 μM alone (negative control), BP tables
  Number of His+ revertants colonies/plate: 162.7 ± 15.0 colonies/plate
[4]; TA 100, 100 μM alone (negative control), MMS tables
  Number of His+ revertants colonies/plate: 181.0 ± 7.4 colonies/plate
[4]; TA 100, 100 μM alone (negative control), NaN3 tables
  Number of His+ revertants colonies/plate: 181.0 ± 7.4 colonies/plate
[4]; TA 100, 250 μM alone (negative control), BP tables
  Number of His+ revertants colonies/plate: 175.3 ± 14.3 colonies/plate
[4]; TA 100, 250 μM alone (negative control), MMS tables
  Number of His+ revertants colonies/plate: 165.3 ± 5.4 colonies/plate
[4]; TA 100, 250 μM alone (negative control), NaN3 tables
  Number of His+ revertants colonies/plate: 165.3 ± 5.4 colonies/plate
[4]; TA 100, 500 μM alone (negative control), 2AF tables
  Number of His+ revertants colonies/plate: 191.0 ± 15.0 colonies/plate
